# Data published in article PMC3626250, “Effects of Borneol on Pharmacokinetics and Tissue Distribution of Notoginsenoside R1 and Ginsenosides Rg1 and Re in Panax notoginseng in Rabbits” (Journal of Analytical Methods in Chemistry, 2013).
# Where two headings read alike, the source gives them in different places.
# Experiment: Transport studies across Caco-2 monolayers (P app, efflux ratio)
# Type: in vitro ADME
# Settings: human; for Papp A→B at 120 min, 500 μM / Papp B→A at 120 min, 500 μM: Caco-2 Model, 500 μM compound; for Papp A→B at 120 min, 500 μM: read-out: P app (apical to basolateral); for Papp B→A at 120 min, 500 μM: read-out: P app (basolateral to apical)
# [1] = Caco-2, Caco-2 monolayers, read-out: efflux ratios (Er)
# [2] = Caco-2, efflux ratio P app(basolateral-apical)/P app(apical-basolateral), with or without 200 μM Borneol (see label), read-out: E r
# [3] = with or without 200 μM Borneol (see label)
"efflux ratio at 120 min, 500 μM [1]","efflux ratio at 120 min, 500 μM [2]","Papp A→B at 120 min, 500 μM [3] [×10⁻⁶ cm/s]","Papp B→A at 120 min, 500 μM [3] [×10⁻⁶ cm/s]",SMILES
1 to 1.1,1.05,0.546 ± 0.04,0.573 ± 0.037,"CC(C)=CCC[C@](C)(O[C@@H]1O[C@H](CO)[C@@H](O)[C@H](O)[C@H]1O)[C@H]1CC[C@]2(C)[C@@H]1[C@H](O)C[C@@H]1[C@@]3(C)CC[C@H](O)C(C)(C)[C@@H]3[C@@H](O[C@@H]3O[C@H](CO)[C@@H](O)[C@H](O)[C@H]3O[C@@H]3O[C@@H](C)[C@H](O)[C@@H](O)[C@H]3O)C[C@]12C [GRe, ginsenoside Re]"
1 to 1.1,1.05,0.348 ± 0.042,0.364 ± 0.029,"CC(C)=CCC[C@](C)(O[C@@H]1O[C@H](CO)[C@@H](O)[C@H](O)[C@H]1O)[C@H]1CC[C@]2(C)[C@@H]1[C@H](O)C[C@@H]1[C@@]3(C)CC[C@H](O)C(C)(C)[C@@H]3[C@@H](O[C@@H]3O[C@H](CO)[C@@H](O)[C@H](O)[C@H]3O)C[C@]12C [GRg1, ginsenoside Rg1]"
